Reference: patent US11318140B2, “Use of TRPV4 antagonists to ameliorate hydrocephalus and related materials and methods” (Indiana University Research and Technology Corporation, priority 2012, dated 2022)
“Also recorded” adds a separate entry of the source.

Legend:
Format in all cases: in vivo, rat
[1] = system: Wistar Wpk/Wpk rats; assay: Renal pathology (kidney weight) in Wpk/Wpk rats; conditions: day 8 through 17
Protocol: (§1) Wistar Wpk/Wpk rats are an orthologous model of human type 3 Meckel Syndrome. Meckel Syndrome is a cilliopathology with both renal cystic and brain pathology. The brain pathology is severe hydrocephalus with hypoplasia of the corpus callosum.
(§2) The inventors treated Wpk/Wpk affected as well as noncystic littermates with either TRPV4 agonist (GSK1016797, 0.003 mg/kg body weight) or antagonist (HC067047, 0.03 mg/kg) from day 8 through 17 and evaluated the cranial enlargement and cerebral manifestations. Both drugs were dissolved in DMSO prior to dilution with normal saline prior to injection (i.p.).
(§3) Wpk/Wpk affected as well as noncystic littermates were treated with TRPV4 antagonist RN-1734 from day 8 through 17 and evaluated the kidney weight and cerebral manifestations (bitemporal head diameter and vertical head dimensions/cranial height). Both drugs were dissolved in DMSO prior to dilution with normal saline prior to injection (i.p.).

[2] = system: Wistar Wpk/Wpk rats; assay: Hydrocephalic cranial/head enlargement in Wpk/Wpk rats; conditions: day 8 through 17
Protocol: as §1, §2, §3

[3] = system: Wpk/Wpk hydrocephalic rats; assay: Cortical thickness from coronal sections of Wpk/Wpk hydrocephalic rats; conditions: 0.03 mg/kg body weight, day 8-17; measured at day 17; p<0.0001
Text: as §1
Cortical thickness measured from coronal sections of Wpk/Wpk hydrocephalic rats at day 17. […] This finding is in agreement with the decreased degree of hydrocephalus in the antagonist treated animals and, therefore, have a decreased loss in cerebral cortex.

[4] = Example 3: i.p., dose not given

SMILES	renal pathology ([1]; Example 2: agonist 0.003 mg/kg, antagonist 0.03 mg/kg, i.p.)	activity and alertness of treated rats ([2]; 0.03 mg/kg i.p.)	head dimensions, treated affected rats versus normal littermates ([2]; 0.03 mg/kg i.p.)	hydrocephalic enlargement of the cranium/brain (head measurements) ([2]; 0.03 mg/kg i.p., affected Wpk/Wpk rats)	cortical thickness [3]	renal pathology (kidney weight) [1, 4]	activity and alertness of treated rats [2, 4]	head dimensions, treated affected rats versus normal littermates [2, 4]	hydrocephalic enlargement of the cranium/brain (bitemporal head diameter, vertical head dimension) [2, 4]
Cc1c(C(=O)Nc2cccc(C(F)(F)F)c2)cc(-c2ccccc2)n1CCCN1CCOCC1 [HC067047]	did not affect the renal pathology	very active and alert like their nonaffected littermates	no difference in head dimensions	almost totally ameliorate; also recorded: significantly less hydrocephalic head measurements	increased cortical thickness	–	–	–	–
CC(C)NCCN(C(C)C)S(=O)(=O)c1ccc(Cl)cc1Cl [RN-1734]	–	–	–	–	–	did not affect the renal pathology	very active and alert like their nonaffected littermates	no difference in head dimensions	almost totally ameliorate
